Data published in the supplement of paper PMC11997997.

Key:
[1] = system: murine bone marrow-derived macrophages; assay: area under cytotoxicity dose-response curve (AUC (% cytotoxicity x dose, relative)); higher = more cytotoxic; details: duration: 6 days; dose range: 0.13-80 uM, 8 points
In short: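 Using opaque 384-well plates, primary murine bone marrow-derived macrophages were treated for 6 days at 37 °C in 5% CO2 with an 8-point, 2.5-fold dilution series spanning final concentrations of 80–0.13 μM. After CellTiter-Glo (Promega) luminescence readout of viability, percent cytotoxicity was normalised to vehicle and positive control wells. The reported value is the area under the dose–response curve for cytotoxicity, derived in GraphPad Prism version 10.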

[2] = system: Mycobacterium tuberculosis CDC1551 (intracellular, in murine BMDM); assay: area under intracellular growth-inhibition dose-response curve (AUC (% inhibition x dose, relative)); higher = more potent; details: duration: 6 days; dose range: 0.13-80 uM, 8 points
In short: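 Primary murine bone marrow-derived macrophages in 384-well opaque plates were infected 24 h after seeding with luciferase-expressing M. tuberculosis CDC1551 at multiplicity of infection 1 for 1 h. They were then treated with an 8-dose, 2.5-fold series (final 80–0.13 μM) for 6 days. Growth was read by Bright-Glo luciferin assay and normalised to a reference drug control and the lowest-concentration wells. The value is the area under the growth-inhibition dose–response curve, calculated in GraphPad Prism.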

Compound | area under cytotoxicity dose-response curve [1] | area under intracellular growth-inhibition dose-response curve [2]
CC[C@H]1OC(=O)[C@H](C)[C@@H](O[C@H]2C[C@@](C)(OC)[C@@H](O)[C@H](C)O2)[C@H](C)[C@@H](O[C@@H]2O[C@H](C)C[C@H](N(C)C)[C@H]2O)[C@](C)(OC)C[C@@H](C)C(=O)[C@H](C)[C@@H](O)[C@]1(C)O | 48.5 | 246
O=C(CCC1CCCCC1)NCc1cccs1 | 42.9 | 187
O=C(OCC(=O)c1ccc(Cl)s1)c1cncc(Br)c1 | 95.6 | 0.884
O=C(c1ccc([N+](=O)[O-])o1)N(Cc1nnc(-c2ccccc2Cl)o1)C1CC1 | 41.5 | 192
C=C1C(=O)O[C@@H]2C[C@@H](C)[C@@H]3C=CC(=O)[C@@]3(C)[C@@H](OC(C)=O)[C@H]12 | 118 | 46.3
CSc1ccc(C(=O)C2CCCN(C(=O)c3ccc4c(c3)no[n+]4[O-])C2)cc1 (stereo not drawn) | 64.7 | 191
Cc1nc(SCc2ccccc2)c2oc3ccccc3c2n1 | 34.5 | 143
CN(C)S(=O)(=O)c1ccc(C(=O)OCC(=O)Nc2ccc3c(c2)OCO3)cc1 | 38.4 | 11.2
CCOc1ccc(OCCCC(=O)NNC(=O)c2ccncc2)cc1 | < 0 | 272
Cc1ccc(C)c(NC(=O)CN(C)C(=O)c2ccc(S(=O)(=O)N3CCCCCC3)cc2)c1 | < 0 | 30.7
CNc1cc(Cl)c2nonc2c1[N+](=O)[O-] | 10.1 | 3.12
N#Cc1ccc(OCC(=O)N2CCN(S(=O)(=O)c3ccc(Cl)s3)CC2)cc1 | 65.3 | 31.9
Cc1cc(C(=O)NC2CCCCCCC2)ccc1[N+](=O)[O-] | < 0 | 220
O=[N+]([O-])c1ccc(/C=N/Nc2nc(N3CCCC3)nc(N3CCCC3)n2)o1 | 171 | 168
C=C[C@]1(C)C[C@@H](OC(=O)CSCCN(CC)CC)[C@]2(C)C(C)CC[C@]3(CCC(=O)[C@H]32)[C@@H](C)[C@@H]1O.O=C(O)/C=C/C(=O)O (stereo partly drawn) | 89.1 | 199
C/C(=N\NC(=O)c1ccncc1)c1ccc(N(C)C)cc1 | 58.7 | 182
Cc1ccc(C2=NCCn3c2c2ccc([N+](=O)[O-])cc2[n+]3[O-])cc1 | 96.8 | 20.7
COc1ccc(NC(=O)CON=CC(=O)Nc2ccc(C)cc2)c(OC)c1 | 7 | 38.9
CCOc1ccc2ccccc2c1/C=N/NC(=O)c1ccncc1 | < 0 | 270
Cc1ccccc1NC(=O)COC(=O)c1cc(S(=O)(=O)N2CCOCC2)ccc1C | 23.2 | 34.5

Compound | area under cytotoxicity dose-response curve [1] | area under intracellular growth-inhibition dose-response curve [2]
O=C(Nc1ccc(S(=O)(=O)Nc2nccs2)cc1)C(F)(F)F | 30 | 159
O=C(/C=C/c1cccs1)NCc1ccccc1 | 10.6 | 217
Cc1ccc2nc(C)c3c(c2c1)SCC3 | 24.5 | 79.5
CCOc1ccccc1OCCCC(=O)Nc1cccc(S(=O)(=O)N2CCOCC2)c1 | 99 | 74
O=C(NC1CCCCCCC1)c1ccco1 | 3.98 | 234
Sc1[nH]cnc2ncnc1-2 | < 0 | 88.6
CNC[C@@H](Cc1ccccc1)NC[C@@H](CC1CCCCC1)NCCCc1ccccc1 | 61.5 | 104
CC(C)Oc1ccc(/C=N/NC(N)=S)cc1 | 17.8 | 275
O=[N+]([O-])c1nn(-c2ccc(Cl)cc2)[n+]([O-])c1NCc1ccncc1 | 11.5 | 30.7
N=c1c2c(-c3ccccc3)c(-c3ccccc3)n(Cc3ccccc3)c2ncn1CCCn1ccnc1 | 49.3 | 48.2
COc1ccc2nc(C)cc(N/N=C/c3ccccc3)c2c1 | 97.6 | 136
CC(=O)OCC1=C(C(=O)O)N2C(=O)[C@@H](NC(=O)CSc3ccncc3)[C@H]2SC1.[Na+] | 52.5 | 114
Cl.c1ccc(CN2CCC3(CCCc4ccccc43)CC2)cc1 | 45.5 | 160
O=C(Nc1ccc(OC(F)(F)F)cc1)c1ccc2c(c1)no[n+]2[O-] | < 0 | 230
Cc1cc(/C=N/NC(N)=S)c(C)n1-c1ccc(Br)cc1 | < 0 | 257
O=C(/C=C/c1cccs1)NC1CCCC1 | 39.1 | 114
Cc1ccc(C)c(NC(=N)Nc2nc(C)cc(C)n2)c1 | < 0 | 218
O=[N+]([O-])c1cc(Cl)c(O)c(-[n+]2c(-c3ccccc3)cc(-c3ccccc3)cc2-c2ccccc2)c1.[O-][Cl+3]([O-])([O-])[O-] | 35.3 | 150
Cc1ccc(NC(=O)c2cc(S(=O)(=O)N3CCCCC3)ccc2N2CCOCC2)cc1S(=O)(=O)N(C)C | 58.9 | < 0
Cc1nnc(SCC2=C(C(=O)O)N3C(=O)C(NC(=O)C(C)n4nc(C(F)(F)F)cc4C)C3SC2)s1 (stereo not drawn) | 2.61 | 176

Compound | area under cytotoxicity dose-response curve [1] | area under intracellular growth-inhibition dose-response curve [2]
CC(C)CCNC(=O)c1csc2c1CCCCC2 | 42.8 | 250
CC(=NNC(=O)c1ccncc1)c1cccc(Br)c1 | < 0 | 234
O=C(N/N=C/c1ccc([N+](=O)[O-])o1)C(O)c1ccccc1 (stereo not drawn) | 72.7 | 123
COc1ccc(/C=C/C(=O)c2ccc([N+](=O)[O-])o2)cc1OC | 118 | 3.95
Br.CCCc1cc(-c2nc(-c3ccc(Cl)cc3)cs2)ccn1 | 78.3 | 163
C[C@@H](CN1CCC[C@H]1CN1C(N)=NC[C@@H]1Cc1ccccc1)N1C[C@@H](Cc2ccccc2)N(CCCC2CCCC2)C1=N | 22.1 | 98
Cc1cc(C(=O)NCc2cccs2)cs1 | 9.86 | 25.9
O=C(N/N=C/c1ccc(OCc2cnc(Cl)s2)cc1)c1ccncc1 | 48.7 | 238
CCOc1ccc(OCCC(=O)NNC(=O)c2ccncc2)cc1 | 1.82 | 272
Cc1ccc(C(=O)NC2CCCCC2)cc1 | 43.3 | 228
COc1ccc(/C=N/NC(=O)c2ccncc2)cc1Cn1nc([N+](=O)[O-])c(Br)c1C | < 0 | 273
CC(=NNC(=O)c1ccncc1)c1cccc(Cl)c1 | < 0 | 258
CCCCCc1ccc(OCCC[n+]2ccccc2)c(CCCCC)c1.[Cl-] | 53 | 137
CC1CCC(C(C)C)C(OC(=O)Cn2c(-c3ccc(Br)cc3)[n+](C)c3ccccc32)C1.[Cl-] (stereo not drawn) | 147 | 128
COc1ccc(/C=N/Nc2cc(C)nc3ccc(OC)cc23)c(OC)c1 | 42.9 | 151
CC(=O)Nc1ccccc1NC(=O)C/C(C)=N/NC(=O)c1ccncc1 | 38.1 | 168
CCC(=O)NC(=S)Nc1ccc(NC(=O)c2ccc(Br)o2)cc1 | 58.2 | 211
Cc1ccc(C(=O)OCC(=O)Nc2ccccc2)cc1S(=O)(=O)N1CCCCC1 | < 0 | 94.3
CCNc1nc(NCC)nc(N/N=C/c2ccc([N+](=O)[O-])o2)n1 | 18 | 266
